Assay results from patent US8188049B2, “Peptides having activities of epidermal growth factor and its uses” (Caregen Co., Ltd., priority 2006, dated 2012).

Legend:
NIH3T3 cells = assay: Cell motility after scratching the culture dish; type: cell-based; conditions: NIH3T3, 1 μg/ml, 1 and 3 day treatment
Description: We analyzed cell motility to further verify cell proliferation potency. NIH3T3 cells were plated on 60 mm-culture dishes and cultured to a suitable fluency. The bottom surface of culture dishes was scratched using pipette and incubated with 1 μg/ml of the present peptides, followed by observing cell motility. In FIG. 6, panels A and B show cell samples non-treated with peptides and panels C and D, cell samples treated with 1 μg/ml peptides. Images of A and C were taken after 1 day-treatment, and those of B and D after 3 day-treatment.

EGF = assay: Autocrine effect: EGF level in culture by ELISA; type: cell-based, human; conditions: HaCat, 1 μg/ml, 6 days
Description: For examining autocrine effects, HaCat cell lines were incubated for 6 days with the tridecapeptides of this invention (1 μg/ml) and then the level of EGF in culture was measured using the ELISA kit (R&D, USA).

Human keratinocytes = assay: Cell adherency to peptide-pretreated culture dishes; type: cell-based; conditions: 24 hr
Description: To analyze effects of peptides of this invention on proliferation of keratinocytes, SRB (Sulforhodamine B) colorimetric assay was carried out using HaCaT kerationcyte according to Rizzino et al method (Rizzino, et al. Cancer Res., 48:4266 (1988)). HaCaT ketatinocytes (The Korean Cell Line Bank) were cultured in 250 ml-flasks containing EMEM (Eagle's minimal essential media, Gibco, U.S.A.) supplemented with […] (fetal bovine serum). HaCaT ketatinocytes cultured were treated with 0.25% trypsin solution to detach cells from the bottom of culture flasks and centrifuged to collect cell pellets. Cells were resuspended in EMEM not containing FBS, its aliquot (4×10^3) cells was added to each well of 96-well plates and cultured under 7% CO2 for 24 hr at 37° C. After 24-hr culture, the medium was changed with a fresh medium not containing serum and cells were incubated with human EGF or the tri-decapeptide (10 ng/ml or 1,000 ng/ml) dissolved in 10% DMSO for 72 hr under the same conditions as described above. After removing supernatants, cells were washed once using PBS (phosphate buffered saline) and incubated with SRB solution (Sigma-Aldrich). Cells were washed with PBS and observed under a microscope to examine cell viability (FIG. 3). In addition, absorbance at 590 nm was measured to analyze cell proliferation (FIG. 4). […]

HaCaT keratinocytes = assay: SRB colorimetric assay, growth of HaCaT keratinocytes; type: cell-based, human; conditions: 72 hr; for cell growth / proliferation of keratinocytes (absorbance at 590 nm): 10 ng/ml or 1,000 ng/ml, serum-free
Description: To analyze effects of peptides of this invention on proliferation of keratinocytes, SRB (Sulforhodamine B) colorimetric assay was carried out using HaCaT kerationcyte according to Rizzino et al method (Rizzino, et al. Cancer Res., 48:4266 (1988)). HaCaT ketatinocytes (The Korean Cell Line Bank) were cultured in 250 ml-flasks containing EMEM (Eagle's minimal essential media, Gibco, U.S.A.) supplemented with […] (fetal bovine serum). HaCaT ketatinocytes cultured were treated with 0.25% trypsin solution to detach cells from the bottom of culture flasks and centrifuged to collect cell pellets. Cells were resuspended in EMEM not containing FBS, its aliquot (4×10^3) cells was added to each well of 96-well plates and cultured under 7% CO2 for 24 hr at 37° C. After 24-hr culture, the medium was changed with a fresh medium not containing serum and cells were incubated with human EGF or the tri-decapeptide (10 ng/ml or 1,000 ng/ml) dissolved in 10% DMSO for 72 hr under the same conditions as described above. After removing supernatants, cells were washed once using PBS (phosphate buffered saline) and incubated with SRB solution (Sigma-Aldrich). Cells were washed with PBS and observed under a microscope to examine cell viability (FIG. 3). In addition, absorbance at 590 nm was measured to analyze cell proliferation (FIG. 4). Cell adherency to culture dishes was tested using non-treated culture dishes and peptide-pretreated culture dishes. Human keratinocytes were plated on the culture dishes and then incubated for 24 hr, followed by observation under a microscope.

NIH-3T3 cell = assay: Stability of tridecapeptide: residual activity by MTT assay after storage at 37° C; type: physicochemical; conditions: 50 mM Tris-HCl pH 8.0, 37° C, days 0-100; peptide 10 μg/ml, EGF 1 μg/ml; MTT on NIH-3T3
Description: To evaluate stability of the synthesized and purified tridecapeptide of Example 1, the tridecapeptide was dissolved in 50 mM Tris-HCl (pH 8.0) to a concentration of 10 μg/ml. The recombinant EGF protein (Sigma-Aldrich) produced in E. coli was prepared as a control in the same buffer to a concentration of 1 μg/ml. The prepared solutions were introduced into glass vials and kept to stand at 37° C. Afterwards, the solutions were taken on days 0, 1, 10, 25, 50, 75 and 100 and subjected to MTT assay (Scudiero, D. A., et al. Cancer Res. 48:4827-4833 (1988)) using NIH-3T3 cell (Korean Cell Line Bank) to determine residual activities of the peptide and EGF (FIG. 2). The results were given as relative values to the activity (100%) of sample taken on day 0.

hyaluronic acid = assay: Hyaluronic acid level by ELISA; type: cell-based, human; conditions: HaCat, 5 μmole, 72 hr
Description: Furthermore, HaCat cell lines were incubated for 72 hr with 5 μmole of the present tridecapeptides and then the level of hyaluronic acid, a marker indicating the improvement in skin wrinkle, was measured using Hyaluronic acid ELISA kit (Echelon Biosciences Inc, USA) (FIG. 8).

[1] = listed as peptide of this invention

Row | Substance | cell motility (NIH3T3 cells) | level of EGF in culture (autocrine effect) (EGF) | level of EGF in culture (autocrine effect) (EGF; listed as present peptide) | number of cells adhered to culture dishes vs non-treated culture dishes (Human keratinocytes; [1]) | number of cells adhered to culture dishes vs non-treated culture dishes (Human keratinocytes; listed as peptides of this invention) | cell growth / proliferation of keratinocytes (absorbance at 590 nm) (HaCaT keratinocytes) | cell growth / proliferation of keratinocytes (absorbance at 590 nm) (HaCaT keratinocytes; [1]) | cell viability (microscope) (HaCaT keratinocytes; SRB staining) | residual activity relative to day 0 (100%) (NIH-3T3 cell) | level of hyaluronic acid (hyaluronic acid)
1 | NH2-Cys-Met-Tyr-Ile-Glu-Gly-Gly-Gly-Gly-Arg-Gly-Asp-Gly-OH (H-CMYIEGGGGRGDG-OH) [tridecapeptide] | promote cell motility | significantly high autocrine effects on EGF | considerable increase | significantly high potency | about three-fold greater | promotes the growth of human keratinocytes in a dose-dependent manner | significantly high potency | significantly high potency | not to be decreased | significantly increased
2 | recombinant EGF protein: recombinant EGF protein (Sigma-Aldrich) produced in E. coli, used as control [reference compound] | – | – | – | – | – | – | – | – | sharply decreased | –
